Data on 14 molecules can be found in patent publication US20040034023A1, “Use of polycyclic aromatic compounds for making medicines capable of inhibiting telomerase” (priority 2000, published 2004).

Where “and” joins values, the source holds several entries; their conditions need not be identical. Equal entries are not always repeated.

For orientation: IC50 means the concentration at which inhibition is half-maximal. For orientation: mortality means the share of the test organisms that died. High values mean fewer survivors, low ones more survivors.

In one data set the test system is human telomerase. Briefly: Telomerase inhibition, TRAP test with HL60 cell extract. It counts as biochemical. The conditions noted are these: for IC50: TRAP test, HL60 cell lysate as source of telomerase; for in vitro inhibition of the telomerase (FIG. 3A, gel of elongation products): tested at 0.1, 1 and 10 μM.
Data set [1] deals with G-quadruplex (fluo-GGGTTAGGGTTAGGGTTAGGG-tamra oligonucleotide, SEQ ID No. 1). Briefly: G-quadruplex stabilization, Tm in fluorescence (FRET method). The conditions noted are these: 1 μM colorant; 0.1 M LiCl 10 mM cacodylate buffer pH 7.6; 0.2 μM oligonucleotide. The format is binding. How it is done: All the experiments were carried out in a 10 mM sodium cacodylate buffer of pH 7.6 containing 0.1 M of lithium chloride (or sodium chloride). The absence of fluorescent contamination in the buffer was verified beforehand. The fluorescent oligonucleotide is added at the final concentration of 0.2 μM.
The identification of G-quartets ligands was carried out by fluorescence according to the FRET (Fluorescence Resonance Energy Transfer) method which corresponds to a dipole-dipole resonance interaction between two molecules close to each other, one of which, the donor, transfers its excitation energy to the other molecule, or acceptor. The formation of an intramolecular G-quartet structure must bring the 2 chromophores close enough to be able to observe a transfer of energy.
All the fluorescence measurements were carried out on a Spex Fluorolog DM1B apparatus, using an excitation line width of 1.8 nm and an emission line width of 4.5 nm. The specimens are placed in a micro quartz dish measuring 0.2×1 cm. The temperature of the specimen is controlled by an external water bath. The single oligonucleotide was analysed at 20, 30, 40, 50, 60, 70 and 80° C. The emission spectra are recorded using an excitation wavelength of 470 nm. The excitation spectra are recorded using either 515 nm, or 588 nm as emission wavelength. The spectra are adjusted to take account of the response of the instrument by reference curves. A substantial extinction (80-90%) of the fluorescence of the fluorescein at ambient temperature is observed, in keeping with an intramolecular folding of the oligonucleotide at 20° C. in the form of a G-quadruplex, which induces a juxtaposition of its 5′ and 3′ ends, respectively bound to the fluorescein and to the tetramethylrhodamine (tamra in short). This juxtaposition involves a phenomenon already described, extinction of fluorescence of the donor by FRET, and a sensitized emission of the acceptor.
A stock solution of oligonucleotide at the strand concentration of 0.2 μM in a 0.1 M LiCl 10 mM cacodylate buffer of pH 7.6 is prepared beforehand, heated briefly to 90° C. and cooled slowly to 20° C., then distributed by aliquots of 600 μl in the fluorescence dishes. 3 μl of water (for the control) or 3 μl of the product to be tested (stock at 200 μM, final concentration 1 μm) are then added and mixed. The specimens are then left to incubate for at least 1 hour at 20° C. before each measurement.
Each experiment allows only a single specimen to be measured. This is firstly incubated at an initial temperature of 20° C., raised to 80° C. in 40 minutes, left for 5 minutes at 80° C., then cooled to 20° C. in 62 minutes. During this time, the fluorescence is measured simultaneously at two emission wavelengths (515 nm and 588 nm) using 470 nm as excitation wavelength. A measurement is carried out every 30 seconds. The temperature of the water bath is recorded in parallel, and the fluorescence profile as a function of the temperature is reconstituted from these values. The fluorescence profiles are then standardized between 20° C. and 80° C., and the temperature for which the emission intensity at 515 nm is the average of those and high and low temperature is called Tm. In these conditions, the Tm of the reference specimen without addition of product is 44° C. in a lithium chloride buffer. This temperature is increased to more than 55° C. in the sodium chloride buffer. The addition of a compound stabilizing the G-quadruplex induces an increase in the Tm. This increase is considered significant if it is greater than 3° C.
In the tests for which the results are reported below, two oligonucleotides were used of sequences SEQ ID No. 1 and SEQ ID No. 2, replaced at the 5′ end by a fluorescein (fluo in short) group and at 3′ end by a tamra group, conforming to the following sequences: […]

Another data set has as its system triplex. The conditions noted are these: 15 μM colorant; cited from earlier work.
Another data set concerns human HeLa tumoral line. The experiment in a line: Antiproliferative effect / cytotoxicity on HeLa cells (Cell Titer 96 Aqueous One Solution). The format is cell-based. How it is done: Cells of cancer lines are incubated for 3 days in the presence of different concentrations of compound 1.
These cells are cultured in a MEM (Life Technologies) medium containing 10% of decomplemented foetal calf serum, glutamine, nonessential amino acids (1%) and antibiotics (penicillin and streptomycin). The ligand is diluted in the culture medium after adhesion of the cells on 96-well plates (2500 cells per well). The number of cells is estimated by the “Cell Titer 96 Aqueous One Solution Cell Proliferation Assay” kit from Promega. Each measurement was carried out in quadruplicate. The cells are left in the presence of the compound for 1 to 4 days, then counted.

Consider `c1nc(CCNCc2ccc3nc4ccc5cc6cc(CNCCc7c[nH]cn7)ccc6nc5c4cc3c2)c[nH]1` [Compound 9], for which it took 0.95 µM to reach half-maximal inhibition in the data set on human telomerase (IC50). In addition, in data set [1], the “Δ Tm G4(FRET)” value is “+10.5 °C”.

With `c1ccc2c(CCNCc3ccc4nc5ccc6cc7cc(CNCCc8c[nH]c9ccccc89)ccc7nc6c5cc4c3)c[nH]c2c1` [Compound 10], in data set [1], the “Δ Tm G4(FRET)” value was “+8.4 °C”.

In the case of “tetra [N-methyl pyridyl]porphyrin [reference compound]”, in data set [1], the “Δ Tm G4(FRET)” value is “approximately 4 °C”.

`CCCNCc1ccc2nc3c(ccc4cc5cc(CNCCC)ccc5nc43)cc2c1` [Compound 5] registered an IC50 in the data set on human telomerase of 0.5 µM. Further, the Δ Tm triplex in the data set with triplex was 7 °C. In data set [1], the “Δ Tm G4(FRET)” value is “+12.5 °C”.

Molecule `CN(C)CCCNCc1ccc2nc3c(ccc4cc5cc(CNCCCN(C)C)ccc5nc43)cc2c1` [Compound 6] showed an IC50 with human telomerase of 0.9 µM. Also, the Δ Tm triplex in the data set on triplex is 16 °C.

Regarding `CN(C)CCCNCc1ccc2nc3ccc4cc5cc(CNCCCN(C)C)ccc5nc4c3cc2c1` [Compound 13], in the data set with human telomerase, the IC50 turned out to be 0.028 µM. The “Δ Tm G4(FRET)” value in data set [1] was “+19.7 °C”.

For `c1ccc2nc3cc(CNCCN4CCCCC4)c4nc5ccccc5cc4c3cc2c1` [Compound 7], in the data set with human telomerase, the IC50 turned out to be 2 µM. In data set [1], the “Δ Tm G4(FRET)” value is “+2.5 °C”.

Take `CCCNCc1cc2nc3ccccc3cc2c2cc3ccccc3nc12` [Compound 2]: in the data set on human telomerase, the IC50 was 1.4 µM and 1.45 µM; the “in vitro inhibition of the telomerase (FIG. 3A, gel of elongation products)” value is “inhibits the telomerase”. For the same molecule, the Δ Tm triplex with triplex was 37 °C. Further, the “Δ Tm G4(FRET)” value in data set [1] was “+5.5 °C”.

For the molecule `CCCNCc1ccc2nc3ccc4cc5cc(CNCCC)ccc5nc4c3cc2c1` [Compound 1], the concentration for half-maximal inhibition (IC50) in the data set with human HeLa tumoral line (HeLa cells in the presence of compound for 24 hours) was determined as 0.5 µM. In the data set on human HeLa tumoral line (HeLa cells incubated for 96 hours, 0.5 micromolars), this molecule showed a mortality of 100%. Further, in the data set with human HeLa tumoral line (HeLa cells, concentrations of 5 micromolars or more), the mortality rate is listed as 100%. Moreover, in the data set with human telomerase, 0.3 µM corresponded to half-maximal inhibition (IC50) and the “in vitro inhibition of the telomerase (FIG. 3A, gel of elongation products)” value is “disappearance of the bands with less mobility”. Moreover, the Δ Tm triplex with triplex was 20 °C.

As for `NCCCCNCc1ccc2nc3ccc4cc5cc(CNCCCCN)ccc5nc4c3cc2c1` [Compound 11], the concentration for half-maximal inhibition (IC50) with human telomerase was found to be 0.13 µM. The “Δ Tm G4(FRET)” value in data set [1] is “+18 °C”.

As to `CCCNCc1ccc2nc3ccc4nc5ccc(CNCCC)cc5cc4c3cc2c1` [Compound 4], the IC50 with human telomerase worked out at 1 µM. For the same molecule, in the data set on triplex, the Δ Tm triplex is 18 °C.

Turning to `c1cc2nc3ccc4cc5cc(CNCCCN6CCOCC6)ccc5nc4c3cc2cc1CNCCCN1CCOCC1` [Compound 12], the IC50 in the data set with human telomerase stood at 0.48 µM. Also, the “Δ Tm G4(FRET)” value in data set [1] was “+7 °C”.

As to `c1cn(CCCNCc2ccc3nc4ccc5cc6cc(CNCCCn7ccnc7)ccc6nc5c4cc3c2)cn1` [Compound 8], the IC50 with human telomerase came out at 0.46 µM. The “Δ Tm G4(FRET)” value in data set [1] is “+15 °C”.

Take `CN(C)CCCNCc1cc2nc3ccccc3cc2c2cc3ccccc3nc12` [Compound 3]: in the data set with human telomerase, the IC50 worked out at 0.75 µM. Besides, in the data set on triplex, the Δ Tm triplex was 44 °C.
